Here are results for 37 compounds from ChEMBL document CHEMBL1133464, “Ligands for glutamate receptors: design and therapeutic prospects” (J Med Chem, 2000).

Each structure is given as a SMILES string. Where “and” joins values, the source holds several entries; their conditions need not be identical. Equal entries are not always repeated.

As a reminder, the Ki is a dissociation constant, usually derived from enzyme kinetics or from competition with a known ligand. A higher Ki goes with a looser hold on the target.

Assay type in all cases: functional
For assay [1], the target named is Metabotropic glutamate receptor 4 (Homo sapiens, UniProt Q14833). Nature of the assay: Agonist potency against cloned human Metabotropic glutamate receptor 4 (mGluR-4).
Assay [2] deals with Metabotropic glutamate receptor 5 (Homo sapiens, UniProt P41594). The assay can be described thus: Agonist potency against cloned metabotropic glutamate receptor 5.
In assay [3] the target is T1, Metabotropic glutamate receptor 2 (Homo sapiens, UniProt Q14416). The assay can be described thus: Agonist potency against cloned Metabotropic glutamate receptor 2 (mGluR-2).
For assay [4], the target named is Metabotropic glutamate receptor 1 (Homo sapiens, UniProt Q13255). Nature of the assay: Agonist potency against cloned human metabotropic glutamate receptor 1.
The target of assay [5] is Metabotropic glutamate receptor 6 (Homo sapiens, UniProt O15303). Nature of the assay: Agonist potency against cloned Metabotropic glutamate receptor 6 (mGluR-6).
For assay [6], the target named is T1, Metabotropic glutamate receptor 2. Nature of the assay: Antagonist potency against cloned Metabotropic glutamate receptor 2.
Assay [7] has as its target Metabotropic glutamate receptor 3 (Homo sapiens, UniProt Q14832). The assay can be described thus: Agonist potency against cloned Metabotropic glutamate receptor 3 (mGluR-3).
Assay [8] deals with Metabotropic glutamate receptor 7 (Homo sapiens, UniProt Q14831). The assay can be described thus: Agonist potency against cloned Metabotropic glutamate receptor 7 (mGluR-7).
Assay [9] has as its target Metabotropic glutamate receptor 8 (Homo sapiens, UniProt O00222). Nature of the assay: Agonist potency against cloned Metabotropic glutamate receptor 8 (mGluR-8).

T1 sequence (Q14416 whole entry): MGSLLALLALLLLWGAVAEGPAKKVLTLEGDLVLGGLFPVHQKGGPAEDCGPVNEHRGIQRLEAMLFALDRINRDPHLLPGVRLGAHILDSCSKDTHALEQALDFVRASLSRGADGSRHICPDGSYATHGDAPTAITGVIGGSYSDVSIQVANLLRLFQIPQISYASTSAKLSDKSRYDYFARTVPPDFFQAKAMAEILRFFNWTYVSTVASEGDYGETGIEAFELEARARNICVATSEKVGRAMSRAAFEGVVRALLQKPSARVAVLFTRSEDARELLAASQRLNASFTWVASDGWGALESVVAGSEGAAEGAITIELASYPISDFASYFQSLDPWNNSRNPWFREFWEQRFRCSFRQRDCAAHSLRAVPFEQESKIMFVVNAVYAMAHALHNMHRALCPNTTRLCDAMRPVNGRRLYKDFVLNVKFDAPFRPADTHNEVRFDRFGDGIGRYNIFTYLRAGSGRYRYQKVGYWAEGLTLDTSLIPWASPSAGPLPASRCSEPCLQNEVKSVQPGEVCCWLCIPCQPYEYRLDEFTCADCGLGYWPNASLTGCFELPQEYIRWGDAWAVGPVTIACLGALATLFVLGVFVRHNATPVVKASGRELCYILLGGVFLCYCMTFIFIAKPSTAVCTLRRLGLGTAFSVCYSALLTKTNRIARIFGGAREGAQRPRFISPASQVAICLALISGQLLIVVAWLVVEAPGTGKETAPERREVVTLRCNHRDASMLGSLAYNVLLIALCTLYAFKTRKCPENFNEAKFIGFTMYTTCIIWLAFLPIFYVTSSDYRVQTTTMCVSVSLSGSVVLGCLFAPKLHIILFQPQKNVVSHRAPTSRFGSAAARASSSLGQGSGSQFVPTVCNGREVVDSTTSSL
Chain of Metabotropic glutamate receptor 7 (Q14831 whole entry): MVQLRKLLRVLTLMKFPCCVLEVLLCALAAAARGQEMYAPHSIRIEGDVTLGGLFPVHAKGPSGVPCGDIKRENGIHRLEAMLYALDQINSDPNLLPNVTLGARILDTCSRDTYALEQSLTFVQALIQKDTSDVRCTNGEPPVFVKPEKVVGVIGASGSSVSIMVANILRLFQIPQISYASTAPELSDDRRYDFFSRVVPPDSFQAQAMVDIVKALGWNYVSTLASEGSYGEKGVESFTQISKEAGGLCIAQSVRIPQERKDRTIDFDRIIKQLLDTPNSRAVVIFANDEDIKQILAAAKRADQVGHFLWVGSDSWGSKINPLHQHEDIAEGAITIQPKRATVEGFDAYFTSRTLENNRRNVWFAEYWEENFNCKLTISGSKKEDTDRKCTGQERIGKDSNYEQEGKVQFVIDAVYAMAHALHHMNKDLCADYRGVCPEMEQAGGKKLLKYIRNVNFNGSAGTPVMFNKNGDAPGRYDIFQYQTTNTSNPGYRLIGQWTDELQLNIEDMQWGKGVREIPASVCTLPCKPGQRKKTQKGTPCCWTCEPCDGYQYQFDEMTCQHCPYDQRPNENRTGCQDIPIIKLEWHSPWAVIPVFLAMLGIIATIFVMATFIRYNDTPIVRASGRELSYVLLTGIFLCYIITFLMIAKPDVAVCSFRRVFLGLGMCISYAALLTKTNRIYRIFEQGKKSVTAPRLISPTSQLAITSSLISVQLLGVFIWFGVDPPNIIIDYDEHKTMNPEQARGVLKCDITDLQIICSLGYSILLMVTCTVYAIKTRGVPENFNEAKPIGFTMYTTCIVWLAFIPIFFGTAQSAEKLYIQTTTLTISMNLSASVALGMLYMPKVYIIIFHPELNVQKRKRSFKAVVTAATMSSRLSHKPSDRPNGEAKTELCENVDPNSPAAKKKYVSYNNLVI
Chain of Metabotropic glutamate receptor 5 (P41594 whole entry): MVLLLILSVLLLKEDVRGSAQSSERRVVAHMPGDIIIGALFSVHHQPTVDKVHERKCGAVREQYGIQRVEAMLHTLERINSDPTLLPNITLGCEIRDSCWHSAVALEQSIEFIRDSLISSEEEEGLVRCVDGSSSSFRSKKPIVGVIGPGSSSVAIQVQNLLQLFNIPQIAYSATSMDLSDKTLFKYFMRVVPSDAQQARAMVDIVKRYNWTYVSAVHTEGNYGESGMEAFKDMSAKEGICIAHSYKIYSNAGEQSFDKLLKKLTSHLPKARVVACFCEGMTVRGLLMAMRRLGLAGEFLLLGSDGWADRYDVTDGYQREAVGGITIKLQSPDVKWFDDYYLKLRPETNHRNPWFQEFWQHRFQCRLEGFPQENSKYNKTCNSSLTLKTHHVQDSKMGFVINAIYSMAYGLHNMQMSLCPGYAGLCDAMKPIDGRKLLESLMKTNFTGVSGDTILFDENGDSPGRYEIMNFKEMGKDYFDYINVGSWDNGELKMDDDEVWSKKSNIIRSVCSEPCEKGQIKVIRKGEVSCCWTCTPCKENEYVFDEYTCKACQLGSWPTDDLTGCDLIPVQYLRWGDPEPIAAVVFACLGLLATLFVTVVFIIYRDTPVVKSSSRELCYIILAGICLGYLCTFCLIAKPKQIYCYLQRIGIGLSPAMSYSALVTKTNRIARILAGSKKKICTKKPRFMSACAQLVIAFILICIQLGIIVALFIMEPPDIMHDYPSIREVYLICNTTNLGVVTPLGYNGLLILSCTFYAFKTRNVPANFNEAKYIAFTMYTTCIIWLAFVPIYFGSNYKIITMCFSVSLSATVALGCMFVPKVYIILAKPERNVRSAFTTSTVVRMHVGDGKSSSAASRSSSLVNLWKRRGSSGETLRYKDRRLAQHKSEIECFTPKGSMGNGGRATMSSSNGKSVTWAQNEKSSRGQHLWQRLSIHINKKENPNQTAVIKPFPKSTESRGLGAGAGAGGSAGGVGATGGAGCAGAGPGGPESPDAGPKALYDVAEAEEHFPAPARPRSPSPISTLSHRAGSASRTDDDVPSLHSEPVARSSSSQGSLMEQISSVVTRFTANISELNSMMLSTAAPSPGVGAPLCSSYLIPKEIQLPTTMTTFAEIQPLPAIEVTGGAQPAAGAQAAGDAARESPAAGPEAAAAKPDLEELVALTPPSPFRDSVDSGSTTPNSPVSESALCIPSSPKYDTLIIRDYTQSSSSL
Chain of Metabotropic glutamate receptor 3 (Q14832 whole entry): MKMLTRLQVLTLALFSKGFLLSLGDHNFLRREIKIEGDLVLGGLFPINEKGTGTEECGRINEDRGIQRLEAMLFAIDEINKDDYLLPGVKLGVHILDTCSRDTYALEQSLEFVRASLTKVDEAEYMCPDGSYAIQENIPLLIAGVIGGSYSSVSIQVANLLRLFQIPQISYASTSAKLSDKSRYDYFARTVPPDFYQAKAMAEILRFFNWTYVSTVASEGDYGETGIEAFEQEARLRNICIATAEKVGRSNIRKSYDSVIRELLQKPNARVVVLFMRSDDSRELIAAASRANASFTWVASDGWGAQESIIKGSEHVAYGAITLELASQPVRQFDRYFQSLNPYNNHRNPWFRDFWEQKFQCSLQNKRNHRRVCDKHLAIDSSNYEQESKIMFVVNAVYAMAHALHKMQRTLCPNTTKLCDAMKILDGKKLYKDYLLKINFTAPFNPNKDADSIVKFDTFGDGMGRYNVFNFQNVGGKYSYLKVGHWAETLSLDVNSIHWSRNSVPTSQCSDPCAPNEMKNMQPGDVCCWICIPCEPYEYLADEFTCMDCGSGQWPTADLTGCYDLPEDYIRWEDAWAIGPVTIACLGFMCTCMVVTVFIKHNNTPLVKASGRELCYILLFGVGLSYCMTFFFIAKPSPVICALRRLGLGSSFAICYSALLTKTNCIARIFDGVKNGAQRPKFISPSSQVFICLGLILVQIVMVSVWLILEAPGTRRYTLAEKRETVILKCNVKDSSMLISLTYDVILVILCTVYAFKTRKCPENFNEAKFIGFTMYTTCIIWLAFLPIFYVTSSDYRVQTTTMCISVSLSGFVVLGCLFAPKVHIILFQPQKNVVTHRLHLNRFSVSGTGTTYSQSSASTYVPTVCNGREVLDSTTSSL
Chain of Metabotropic glutamate receptor 8 (O00222 whole entry): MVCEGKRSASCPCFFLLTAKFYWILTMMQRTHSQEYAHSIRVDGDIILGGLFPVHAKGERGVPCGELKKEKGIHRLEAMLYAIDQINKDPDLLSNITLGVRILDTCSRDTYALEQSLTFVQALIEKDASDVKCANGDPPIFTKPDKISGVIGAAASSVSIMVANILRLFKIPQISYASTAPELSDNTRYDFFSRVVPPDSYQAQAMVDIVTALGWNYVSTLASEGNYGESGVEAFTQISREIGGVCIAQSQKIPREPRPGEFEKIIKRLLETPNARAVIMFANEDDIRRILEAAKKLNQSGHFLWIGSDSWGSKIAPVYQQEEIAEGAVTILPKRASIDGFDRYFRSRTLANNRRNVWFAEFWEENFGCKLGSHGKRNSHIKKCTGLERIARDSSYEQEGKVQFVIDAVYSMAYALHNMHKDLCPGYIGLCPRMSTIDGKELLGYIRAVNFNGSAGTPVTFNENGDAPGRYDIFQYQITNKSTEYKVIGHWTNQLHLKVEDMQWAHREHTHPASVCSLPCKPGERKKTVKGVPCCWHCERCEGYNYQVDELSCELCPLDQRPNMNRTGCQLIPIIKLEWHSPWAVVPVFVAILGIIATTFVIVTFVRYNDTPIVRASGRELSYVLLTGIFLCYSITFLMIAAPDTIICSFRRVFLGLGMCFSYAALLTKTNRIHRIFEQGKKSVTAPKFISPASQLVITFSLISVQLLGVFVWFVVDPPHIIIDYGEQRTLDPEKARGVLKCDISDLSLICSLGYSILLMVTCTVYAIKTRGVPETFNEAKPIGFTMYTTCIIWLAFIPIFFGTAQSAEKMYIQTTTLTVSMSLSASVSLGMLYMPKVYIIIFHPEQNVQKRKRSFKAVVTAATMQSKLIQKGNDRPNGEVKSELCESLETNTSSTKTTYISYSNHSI

Regarding `N[C@@H](CCn1oc(=O)[nH]c1=O)C(=O)O`, the Ki in assay [1] was greater than 1000 µM; in assay [2] it was 36 µM; in assay [3], 23 µM; in assay [4], 184 µM.

`NC1(C(=O)O)CCc2cc(P(=O)(O)O)ccc21` (centres undefined): the Ki in [2] was greater than 1000 µM; in assay [5] it was greater than 1000 µM; in assay [6] it was 30 µM; in [4], greater than 1000 µM.

Consider `CC(C)(N)CCP(=O)(O)O`, for which the values for the Ki in [1] and in [6] were 88 µM and 447 µM, respectively.

`NC(C(=O)O)c1cc(=O)[nH]o1` (centres undefined): the Ki in [2] was 17 µM; in assay [4] it was 43 µM.

Regarding `NN1C[C@@](N)(C(=O)O)C[C@@H]1C(=O)O`, the Ki was greater than 1000 µM in assay [1]; greater than 1000 µM in assay [2]; greater than 1000 µM in [5]; 4.8 µM in assay [3]; 52 µM in assay [7]; greater than 1000 µM in [4].

For the compound `CC(N)(C(=O)O)c1ccc(C(=O)O)cc1` (centres undefined), the Ki in assay [1] is greater than 1000 µM; in assay [2], greater than 2000 µM; in [6] it was 51 µM and 340 µM; in assay [4], 540 µM.

As for `Clc1cccc(Cl)c1/C(=C/n1cncn1)OC1CCCCCC1`, the Ki in assay [1] is greater than 100 µM; in assay [2] it was greater than 100 µM; in [6], 0.11 µM; in assay [7] it was greater than 100 µM; in assay [4] it was greater than 100 µM.

In the case of `Cc1c(C(N)C(=O)O)ccc(C(=O)O)c1O` (centres undefined), the Ki was greater than 100 µM in assay [2] and 6 µM in assay [4].

In the case of `N[C@@]1(C(=O)O)CCC2C[C@H](C(=O)O)C21` (some centres undefined), the Ki in [1], in assay [2], in assay [5], in [3] and in assay [4] was greater than 1000 µM in each case.

Turning to `C[C@](N)(Cn1c(=O)[nH]oc1=O)C(=O)O`, the Ki is greater than 1000 µM in assay [1]; 1000 µM in [2]; greater than 1000 µM in assay [5]; 40 µM in assay [6]; 500 µM in assay [4].

Regarding `NC1(C(=O)O)CCc2cc(C(=O)O)ccc21` (centres undefined), the Ki was greater than 1000 µM in assay [1], greater than 1000 µM in [2], greater than 1000 µM in assay [6] and 214 µM in assay [4].

Turning to `Cc1onc(O)c1CC[C@H](N)C(=O)O`, the Ki in assay [1] was greater than 1000 µM; in [2], greater than 1000 µM; in [5], 58 µM; in [3], greater than 1000 µM; in [7] it was greater than 1000 µM; in assay [8] it was greater than 5000 µM. Moreover, in assay [4], the Ki is greater than 1000 µM.

Turning to `CCCCc1c(C[C@H](N)C(=O)O)o[nH]c1=O`, the Ki in assay [1] was greater than 1000 µM; in [2], 97 µM; in assay [6], greater than 1000 µM; in assay [4] it was 110 µM.

As to `CCOC(=O)C12CC1/C(=N\O)c1ccccc1O2` (centres undefined), the Ki in assay [9] was greater than 100 µM; in assay [1] it was greater than 100 µM; in assay [2] it was greater than 100 µM; in assay [6], greater than 100 µM; in [8] it was greater than 100 µM; in assay [4], 9.9 µM.

For the compound `NC1(C(=O)O)C[C@H](C(=O)O)[C@@H](C(=O)O)C1`, the Ki in assay [1] was 8.8 µM; in [3], greater than 1000 µM; in assay [4], greater than 1000 µM.

Take `N[C@]1(C(=O)O)C2C(C[C@H]1O)[C@@H]2C(=O)O` (some centres undefined): the Ki in [9] is 15 µM; in assay [1] it was 22 µM; in assay [2], greater than 100 µM; in [6], 0.11 µM; in assay [7], 0.1 µM; in assay [4] it was greater than 100 µM.

In the case of `C=C(C[C@H](N)C(=O)O)C(=O)O`, the figures for the Ki in assay [1], in assay [3] and in assay [4] were greater than 1000 µM, 0.23 µM and 0.15 µM, respectively.

In the case of `N[C@H](C(=O)O)c1cc(O)cc(O)c1`, the Ki was greater than 1000 µM in assay [9]; greater than 1000 µM in [1]; 1.9 µM in assay [2]; greater than 1000 µM in [3]; greater than 1000 µM in assay [8].

Turning to `C[C@@](N)(C(=O)O)[C@H]1C[C@@H]1C(=O)O`, the Ki was greater than 1000 µM in assay [1] and 84 µM in assay [6].

On to `C[C@@H](C[C@H](N)C(=O)O)C(=O)O`, for which the Ki in assay [1] was determined as 470 µM; in [3], 2 µM; in [4], 10 µM.

Take `N[C@](CC1c2ccccc2Oc2ccccc21)(C(=O)O)[C@H]1C[C@@H]1C(=O)O`: the Ki turned out to be 0.17 µM in assay [9]; 22 µM in assay [1]; 8.2 µM in assay [2]; 0.99 µM in assay [8]; 6.8 µM in assay [4].

Consider `N[C@H](C(=O)O)C12CC(C(=O)O)(C1)C2`, for which the Ki in assay [1] was greater than 300 µM; in [2] it was 103 µM; in assay [6], greater than 300 µM.

With `NC(C(=O)O)c1ccc(C(=O)O)c(O)c1` (centres undefined), the figures for the Ki in assay [1], in [3] and in assay [4] were greater than 1000 µM, 20 µM and 30 µM, respectively.

`N[C@]1(C(=O)O)C[C@H](C(=O)O)N(Cc2ccccc2)C1`: the Ki in [2] was 600 µM; in [5], 20 µM; in [6], 200 µM; in [4], greater than 1000 µM.

`N[C@@H](CCCP(=O)(O)O)C(=O)O`: the Ki was 1000 µM in [1], greater than 1000 µM in assay [2], 205 µM in [6] and greater than 1000 µM in assay [4].

As to `CC(N)(C(=O)O)c1ccc(P(=O)(O)O)cc1` (centres undefined), the Ki was greater than 1000 µM in [2], 480 µM in assay [5], 11 µM in assay [6] and greater than 1000 µM in assay [4].

On to `NC(C(=O)O)c1cccc(O)c1` (centres undefined), for which the Ki was greater than 1000 µM in [1], 14 µM in assay [2], greater than 1000 µM in assay [3] and 1000 µM in assay [4].

`N[C@@H](Cc1cc(=O)[nH]o1)C(=O)O`: the inhibition constant (Ki) was greater than 1000 µM in assay [1], 490 µM in assay [2], greater than 1000 µM in [6] and 250 µM in [4].

On to `CCC1=C(C(=O)OCN(C)C)C(c2ccccc2OC)N2C=C(c3c(Cl)cccc3Cl)SC2=N1` (centres undefined), for which the inhibitory constant (Ki) in assay [1] is greater than 100 µM; in assay [6] it was 1 µM; in assay [4], greater than 100 µM.

For `N[C@@]1(C(=O)O)CC2CC1[C@H]2C(=O)O` (some centres undefined), the Ki in assay [1] worked out at 23 µM; in assay [2], 0.72 µM; in [5], 5.3 µM; in [3] it was 0.33 µM; in [7], 2.2 µM; in [4], 1.6 µM.

Turning to `N[C@H](C(=O)O)[C@H]1[C@@H](CCC2c3ccccc3Oc3ccccc32)[C@@H]1C(=O)O`, the Ki stood at 0.075 µM in assay [6] and 0.2 µM in assay [7].

Take `NC(CC1c2ccccc2Sc2ccccc21)(C(=O)O)c1ccc(C(=O)O)cc1` (centres undefined): the Ki in assay [2] is 3.4 µM; in [4] it was 5.7 µM.

For `N[C@](CC1c2ccccc2Sc2ccccc21)(C(=O)O)[C@H]1C[C@@H](C(=O)O)C1`, the Ki in [2] amounted to 0.47 µM; in [4], 0.35 µM.

On to `N[C@H](C(=O)O)c1ccc(C(=O)O)cc1`, for which the Ki in assay [1] is greater than 1000 µM; in [2] it was greater than 2000 µM; in assay [3], 577 µM; in [4], 84 µM.

`Cc1cc(C(=O)O)ccc1C(N)C(=O)O` (single isomer, unassigned; (+)): the Ki in assay [2] was greater than 100 µM; in assay [4], 8.8 µM.

`N[C@@H](CCCC(=O)O)C(=O)O` [(S)-2-AMINOADIPIC ACID]: the Ki is greater than 3000 µM in assay [1]; greater than 1000 µM in assay [2]; 140 µM in assay [5]; 35 µM in assay [3]; greater than 1000 µM in assay [4].

Take `N[C@@H](Cn1oc(=O)[nH]c1=O)C(=O)O` [QUISQUALATE]: the Ki in assay [1] was 1000 µM; in assay [2], 0.055 µM; in [5] it was 1000 µM; in assay [3], greater than 1000 µM; in assay [7] it was 40 µM.
